Measured values: patent US6437002B1, “Agent for preventing and treating skin diseases” (Showa Denko K.K., priority 1998, dated 2002)

Key:
[1] = system: dorsum skin of hairless mouse; assay: Test (A): skin permeability and ascorbic acid activity, H-type transverse diffusion cell; assay type: in vitro ADME; parameters: key: When an ascorbic acid transmitted through the skin was identified, the evaluation was “+”; when an ascorbic acid was not detected, the evaluation was “−”; When a peak on the order of a trace was confirmed, the evaluation was “+”; settings: abraded hairless mouse skin, 37° C., 30 to 120 minutes
Method: The dorsum skin with corium of a 4- or 5-week-old hairless mouse was abraded and the skin abraded from the back of the hairless mouse was fixed in an H-type transverse diffusion cell. Then, 2 ml of DALBECCO PBS(−) was charged into the receiver-side cell and 2 ml of a specimen was charged into the donor-side cell. After incubation at 37° C. for from 30 to 120 minutes, 200 μl was sampled from the […] and 200 μl of DALBECCO PBS(−) was replenished. An ascorbic acid amount of the solution sampled was analyzed by the HPLC method described later in the Examples. When an ascorbic acid transmitted through the skin was detected and identified, the evaluation was “+” and when an ascorbic acid was not detected and identified, the evaluation was “−”. When a peak on the order of a trace was confirmed, the evaluation was “±”.
The dorsum skin with corium of a 4- or 5-week-old hairless mouse was abraded and the skin abraded from the back of the hairless mouse was fixed in an H-type transverse diffusion cell. Then, 2 ml of DALBECCO PBS(−) was charged into the receiver-side cell and 2 ml of a specimen was charged into the donor-side cell (in the case of an oil-soluble material, it was emulsion-dispersed in an ordinary manner by adding 2% of a surfactant Tween 80 (trademark)). After incubation at 37° C. for from 30 to 120 minutes, 200 μl was sampled from the […] and 200 μl of DALBECCO PBS (−) was replenished. An ascorbic acid amount of the solution sampled was analyzed by the HPLC method in the Examples. When an ascorbic acid transmitted through the skin was identified, the evaluation was “+” and when an ascorbic acid was not detected, the evaluation was “−” When a peak on the order of a trace was confirmed, the evaluation was […].

[2] = Test (B): durability (activity duration) on storage; assay type: physicochemical; settings: 0.5% in water (oil-soluble: emulsion with 2% Tween 80), stored at 40° C. for one month
Method: An ascorbic acid derivative was dissolved in water to have a concentration of 0.5% (in the case of an oil-soluble SF-621 US material, it was emulsion-dispersed in an ordinary manner by adding 2% of a surfactant Tween 80 (trademark)) and stored at 40° C. for one month. Then the residual amount of the derivative was measured by the HPLC method described later in the Examples. When the residual ratio was 90% or more, the evaluation was “+” and when it was less than 90%, the evaluation was “−”.
An ascorbic acid derivative was dissolved in water to have a concentration of 0.5% (in the case of an oil-soluble material, it was emulsion-dispersed in an ordinary manner by adding 2% of a surfactant Tween 80 (trademark)) and stored at 40° C. for one month. Then the residual amount of the derivative was measured by the HPLC method. When the residual ratio was 90% or more, the evaluation was “+” and when it was less than 90%, the evaluation was “−”.

Molecule | Test (A): skin permeability and ascorbic acid activity (ascorbic acid transmitted through the skin, by HPLC) [1] | Test (B): durability (residual ratio of the derivative by HPLC) [2]
2-Palmitoyloxy-L-ascorbic acid-2-phosphate | + | 
Cc1c(C)c2c(c(C)c1OP(=O)(O)OC1=C(O)[C@@H]([C@@H](O)CO)OC1=O)CC[C@@](C)(CCC[C@H](C)CCC[C@H](C)CCCC(C)C)O2 [Ascorbic acid tocopherolphosphate diester, reference compound] | − | + (When the residual ratio was 90% or more, the evaluation was “+”)
O=C1O[C@H]([C@@H](O)CO)C(O)=C1OP(=O)([O-])[O-].[Mg+2] [Magnesium L-ascorbic acid-2-phosphate] |  | + (When the residual ratio was 90% or more, the evaluation was “+”)
O=C1O[C@H]([C@@H](O)CO)C(O)=C1OP(=O)([O-])[O-].[K+].[K+] [Potassium L-ascorbic acid-2-phosphate] | + | + (When the residual ratio was 90% or more, the evaluation was “+”)
O=C1O[C@H]([C@@H](O)CO)C(O)=C1OP(=O)([O-])[O-].[Na+].[Na+] [Sodium L-ascorbic acid-2-phosphate] | + | + (When the residual ratio was 90% or more, the evaluation was “+”)

Continued, in another order:

Test (A): skin permeability and ascorbic acid activity (ascorbic acid transmitted through the skin, by HPLC) [1] | Molecule | Test (B): durability (residual ratio of the derivative by HPLC) [2]
+ | O=C1O[C@H]([C@@H](O)CO)C(O)=C1O[C@H]1O[C@H](CO)[C@@H](O)[C@H](O)[C@H]1O [L-Ascorbic acid-2-glucoside] | + (When the residual ratio was 90% or more, the evaluation was “+”)
− | O=C1O[C@H]([C@@H](O)CO)C(O)=C1OS(=O)(=O)[O-].[Na+] [Sodium L-ascorbic acid-2-sulfate, reference compound] | + (When the residual ratio was 90% or more, the evaluation was “+”)
